As usually defined, the EC50 is the midpoint of the concentration-response curve. A high value points to a need for much substance.

Read-outs that look alike come from different tables or passages of the source.

Data set [1] concerns replicon cells (1b-Con1). The data set can be described thus: Cytotoxicity MTS assay in replicon cells. The settings on record: CC50, MTS assay, three days post dosing.
For data set [2], the system named is replicon cells (1b-Con1). The data set can be described thus: Replicon activity assay (1b-Con1). The class given is cell-based, HCV. The settings on record: Hepatitis C virus, 72 h, three days post-dosing.
Data set [3] relates to HCV replicon (1b) cells. The data set can be described thus: Cell-based HCV replicon assay. As to the method: To measure cell-based anti-HCV activity of selected compounds of the present invention, replicon cells were seeded at 5000 cells/well in 96-well collagen I-coated Nunc plates in the presence of the test compound. […]. Cells were harvested on day 3 by the addition of 1× cell lysis buffer (Ambion cat #8721). The replicon RNA level was measured using real time PCR (Taqman assay). The amplicon was located in 5B. The PCR primers were: 5B.2F, […] (SEQ ID. NO. 1); 5B.2R, […] (SEQ ID. NO. 2); the probe sequence was FAM-labeled […] (SEQ ID. NO. 3). GAPDH RNA was used as endogenous control and was amplified in the same reaction as NS5B (multiplex PCR) using primers and VIC-labeled probe recommended by the manufacturer (PE Applied Biosystem). The real-time RT-PCR reactions were run on ABI PRISM 7900HT Sequence Detection System using the following program: 48° C. for 30 minutes, 95° C. for 10 minutes, 40 cycles of 95° C. for 15 sec, 60° C. for 1 minute. The ΔCT values (CT5B-CTGAPDH) were plotted against the concentration of test compound and fitted to the sigmoid dose-response model using XLfit4 (MDL). […]; Alternatively, to quantitate the absolute amount of replicon RNA, a standard curve was established by including serially diluted T7 transcripts of replicon RNA in the Taqman assay. All Taqman reagents were from PE Applied Biosystems. Such an assay procedure was described in detail in e.g. Malcolm et al., Antimicrobial Agents and Chemotherapy 50: 1013-1020 (2006).

Where [4] appears, read: Hepatitis C virus, 72 h, replicon RNA level by real time PCR, cells harvested on day 3.
Setting [5] is: replicon RNA level by real time PCR, cells harvested on day 3.

In the case of `CC(C)OC(=O)[C@H](C)NP(=O)(OC[C@H]1O[C@@H](n2ccc(N)nc2=O)[C@](C)(N)C1O)Oc1ccccc1` (stereo partly drawn), in data set [1], the Cytotoxicity was more than 100 µM. In addition, the EC50 in data set [2] was 5.5 µM. The matching figures for `C#C[C@]1(C)[C@H](O)[C@@H](COP(=O)(N[C@@H](C)C(=O)OC(C)C)Oc2ccccc2)O[C@H]1n1ccc(=O)[nH]c1=O` (stereo partly drawn): more than 100 µM and 2.3 µM.

In turn, `COc1nc(N)nc2c1ncn2[C@@H]1O[C@H](COP(=O)(N[C@@H](C)C(=O)OCC(C)(C)C)Oc2ccccc2)C(O)[C@@]1(C)N` (stereo partly drawn) displayed a Cytotoxicity in data set [1] of more than 100 µM. A half-maximal response in data set [2] (EC50) required 0.9 µM. For `C[C@H](NP(=O)(OC[C@H]1O[C@@H](n2ccc(=O)[nH]c2=O)[C@](C)(N)C1O)Oc1ccccc1)C(=O)OCC(C)(C)C` (stereo partly drawn) the same measures were more than 100 µM and 0.7 µM.

Take `C[C@H](NP(=O)(OC[C@H]1O[C@@H](n2ccc(N)nc2=O)[C@](C)(N)C1O)Oc1ccccc1)C(=O)OCC(C)(C)C` (stereo partly drawn): the Cytotoxicity in data set [1] was more than 100 µM. The compound further gave a concentration giving a half-maximal response (EC50) in data set [2] of 4.4 µM. For `CC(C)COC(=O)[C@H](C)NP(=O)(OC[C@H]1O[C@@H](n2ccc(N)nc2=O)[C@](C)(N)[C@@H]1O)Oc1ccccc1` (stereo partly drawn) the same measures were 50 µM and 6.6 µM.

Compound `CCOc1nc(N)nc2c1ncn2[C@@H]1O[C@H](COP(=O)(N[C@@H](C)C(=O)OC)Oc2ccccc2)C(O)[C@@]1(C)N` (single isomer, unassigned) [Compound 21] had an EC50 in data set [3] (setting [4]) of 2.6 µM. For the compound `COc1nc(N)nc2c1ncn2[C@@H]1O[C@H](COP(=O)(N[C@@H](C)C(=O)OC(C)C)Oc2ccccc2)C(O)[C@@]1(C)N` (single isomer, unassigned) [Compound 22], a half-maximal effect in data set [3] (setting [5]) (EC50) was put at 2.6 µM. With `COc1nc(N)nc2c1ncn2[C@@H]1O[C@H](COP(=O)(N[C@@H](C)C(=O)OC(C)C)Oc2ccccc2)C(O)[C@@]1(C)N` (single isomer, unassigned) [Compound 23], the EC50 in data set [3] (setting [5]) was more than 100 µM.

`CCOC(=O)[C@H](C)NP(=O)(OC[C@H]1O[C@@H](n2cnc3c(OC)nc(N)nc32)[C@](C)(N)C1O)Oc1ccccc1` (single isomer, unassigned) [Compound 28]: in data set [3] (setting [4]), a half-maximal response (EC50) required 0.1 µM. In data set [3] (setting [5]), `CCOC(=O)[C@H](C)NP(=O)(OC[C@H]1O[C@@H](n2cnc3c(OC)nc(N)nc32)[C@](C)(N)C1O)Oc1ccccc1` (single isomer, unassigned) [Compound 29] had an EC50 of 0.1 µM. Still for that read-out and setting: the result for `COc1nc(N)nc2c1ncn2[C@@H]1O[C@H](COP(=O)(N[C@@H](C)C(=O)OCC(C)(C)C)Oc2ccccc2)C(O)[C@@]1(C)N` (single isomer, unassigned) [Compound 52] reads 0.9 µM; that for `COc1nc(N)nc2c1ncn2[C@@H]1O[C@H](COP(=O)(N[C@@H](C)C(=O)OCC(C)(C)C)Oc2ccccc2)C(O)[C@@]1(C)N` (single isomer, unassigned) [Compound 53], 2.7 µM; that for `CCOc1nc(N)nc2c1ncn2[C@@H]1O[C@H](COP(=O)(N[C@@H](C)C(=O)OCC(C)(C)C)Oc2ccccc2)C(O)[C@@]1(C)N` (single isomer, unassigned) [Compound 54], 1.5 µM.

For the compound `CCOc1nc(N)nc2c1ncn2[C@@H]1O[C@H](COP(=O)(N[C@@H](C)C(=O)OCC(C)(C)C)Oc2ccccc2)C(O)[C@@]1(C)N` (single isomer, unassigned) [Compound 55], in data set [3] (setting [5]), the midpoint of the response, the EC50, lay at 3.1 µM. Same read-out and setting: with `C[C@H](NP(=O)(OC[C@H]1O[C@@H](n2ccc(=O)[nH]c2=O)[C@](C)(N)C1O)Oc1ccccc1)C(=O)OCC(C)(C)C` (single isomer, unassigned) [Compound 56] the figure was 0.7 µM. In turn, `C[C@H](NP(=O)(OC[C@H]1O[C@@H](n2ccc(=O)[nH]c2=O)[C@](C)(N)C1O)Oc1ccccc1)C(=O)OCC(C)(C)C` (single isomer, unassigned) [Compound 57] showed an EC50 in data set [3] (setting [5]) of 9.9 µM. The same measure, in the same setting: the result for `C[C@H](NP(=O)(OC[C@H]1O[C@@H](n2ccc(N)nc2=O)[C@](C)(N)C1O)Oc1ccccc1)C(=O)OCC(C)(C)C` (single isomer, unassigned) [Compound 58] reads 4.4 µM; that for `C[C@H](NP(=O)(OC[C@H]1O[C@@H](n2ccc(N)nc2=O)[C@](C)(N)C1O)Oc1ccccc1)C(=O)OCC(C)(C)C` (single isomer, unassigned) [Compound 59], 11 µM. Regarding `CC(C)COC(=O)[C@H](C)NP(=O)(OC[C@H]1O[C@@H](n2ccc(N)nc2=O)[C@](C)(N)[C@@H]1O)Oc1ccccc1` (single isomer, unassigned) [Compound 64], the EC50 in data set [3] (setting [4]) is 6.6 µM. In turn, `CC(C)COC(=O)[C@H](C)NP(=O)(OC[C@H]1O[C@@H](n2ccc(=O)[nH]c2=O)[C@](C)(N)[C@@H]1O)Oc1ccccc1` (single isomer, unassigned) [Compound 67] had an EC50 in data set [3] (setting [4]) of 6.8 µM. Compound `C[C@@]1(N)[C@H](O)[C@@H](CO)O[C@H]1n1ccc(N)nc1=O` [Compound 1] displayed an EC50 in data set [3] (setting [5]) of 100 µM.

On to `C[C@@]1(S(C)(=O)=O)[C@H](O)[C@@H](CO)O[C@H]1n1ccc(N)nc1=O` [Compound 3], for which the EC50 in data set [3] is more than 100 µM. Still for that read-out and setting: the result for `C[C@@]1(n2ccnn2)[C@H](O)[C@@H](CO)O[C@H]1n1ccc(N)nc1=O` [Compound 4] reads more than 100 µM. For `COC(=O)[C@H](C)NP(=O)(OC[C@H]1O[C@@H](n2ccc(N)nc2=O)[C@](C)(n2ccnn2)[C@@H]1O)Oc1ccccc1` (stereo partly drawn) [Compound 5], it took 90 µM to reach a half-maximal effect in data set [3] (setting [5]) (EC50). Compound `C[C@@]1(Cl)[C@H](O)[C@@H](CO)O[C@H]1n1ccc(N)nc1=O` [Compound 6] came in with an EC50 in data set [3] of 10 µM. On to `COC(=O)[C@H](C)NP(=O)(OC[C@H]1O[C@@H](n2ccc(N)nc2=O)[C@](C)(SC)[C@@H]1O)Oc1ccccc1` (stereo partly drawn) [Compound 7], for which, in data set [3] (setting [5]), the midpoint of the response, the EC50, lay at 29 µM.

On to `COC(=O)[C@H](C)NP(=O)(OC[C@H]1O[C@@H](n2ccc(N)nc2=O)[C@](C)(Cl)[C@@H]1O)Oc1ccccc1` (stereo partly drawn) [Compound 8], for which the EC50 in data set [3] (setting [4]) turned out to be 34 µM.

With `CC(=O)N[C@]1(C)[C@H](O)[C@@H](CO)O[C@H]1n1ccc(N)nc1=O` [Compound 9], a half-maximal response in data set [3] (EC50) required 100 µM. Still for that read-out and setting: the result for `CCOc1nc(N)nc2c1ncn2[C@@H]1O[C@H](CO)[C@@H](O)[C@@]1(C)N` [Compound 10] reads 29 µM. Take `CCOc1nc(N)nc2c1ncn2[C@@H]1O[C@H](COP(=O)(N[C@@H](C)C(=O)OC)Oc2ccccc2)C(O)[C@@]1(C)NC(N)=O` (stereo partly drawn) [Compound 12]: the EC50 in data set [3] (setting [4]) was more than 100 µM. Same read-out and setting: with `COc1nc(N)nc2c1ncn2[C@@H]1O[C@H](CO)[C@@H](O)[C@@]1(C)N` [Compound 15] the figure was more than 100 µM; with `C[C@@]1(N)[C@H](O)[C@@H](CO)O[C@H]1n1ccc(=O)[nH]c1=O` [Compound 16], more than 100 µM. On the same count and under the same terms, the result for `C[C@@]1(N)[C@H](O)[C@@H](CO)O[C@H]1n1cnc2c(N3CCC3)nc(N)nc21` [Compound 17] reads more than 100 µM.

`CCOc1nc(N)nc2c1ncn2[C@@H]1O[C@H](COP(=O)(N[C@@H](C)C(=O)OC)Oc2ccccc2)C(O)[C@@]1(C)N` (stereo partly drawn) [Compound 20] came in with an EC50 in data set [3] (setting [5]) of 2.5 µM. In turn, `CC(C)OC(=O)[C@H](C)NP(=O)(OC[C@H]1O[C@@H](n2ccc(=O)[nH]c2=O)[C@](C)(N)[C@@H]1O)Oc1ccccc1` (stereo partly drawn) [Compound 24] yielded an EC50 in data set [3] (setting [5]) of 5 µM.

As to `CCOc1nc(N)nc2c1ncn2[C@@H]1O[C@H](COP(=O)(N[C@@H](C)C(=O)OC)Oc2ccccc2)[C@@H](O)[C@@]1(C)SC` (stereo partly drawn) [Compound 43], the response in data set [3] (setting [4]) was half-maximal at 38 µM (EC50). For the compound `CCCCOC(=O)[C@H](C)NP(=O)(OC[C@H]1O[C@@H](n2cnc3c(OCC)nc(N)nc32)[C@](C)(SC)[C@@H]1O)Oc1cccc2ccccc12` (stereo partly drawn) [Compound 44], a half-maximal response in data set [3] (setting [4]) (EC50) required 24 µM. The same measure, in the same setting: with `CC(C)OP1(=O)OC[C@H]2O[C@@H](n3ccc(N)nc3=O)[C@](C)(N)[C@@H]2O1` (stereo partly drawn) [Compound 78] the figure was 30 µM; with `C[C@@]1(N)[C@@H]2OP(=O)(OC3CCC3)OC[C@H]2O[C@H]1n1ccc(N)nc1=O` (stereo partly drawn) [Compound 79], 2.8 µM. In data set [3] (setting [5]), `C[C@@]1(C(N)=O)[C@H](O)[C@@H](CO)O[C@H]1n1ccc(N)nc1=O` [Compound 85] had an EC50 of 45 µM.

In the case of `COc1nc(N)nc2c1ncn2[C@@H]1O[C@@H]2COP(=O)(OC(C)C)O[C@H]2[C@@]1(C)N` (stereo partly drawn) [Compound 98], in data set [3] (setting [5]), the EC50 came out at 43 µM. Regarding `CC(C)OC(=O)[C@H](C)NP(=O)(OC[C@H]1O[C@@H](n2ccc(=O)[nH]c2=O)[C@](C)(N)[C@@H]1O)Oc1ccccc1` (stereo partly drawn) [drawing 239], the Cytotoxicity in data set [1] was more than 100 µM. The same compound showed a concentration giving a half-maximal response (EC50) in data set [2] of 3.1 µM. For `COc1nc(N)nc2c1ncn2[C@@H]1O[C@@H]2COP(=O)(OC(C)C)O[C@H]2[C@@]1(C)N` (stereo partly drawn) [drawing 240] the same measures were more than 100 µM and 43.7 µM. The compound `CCOc1nc(N)nc2c1ncn2[C@@H]1O[C@H](COP(=O)(N[C@@H](C)C(=O)OC)Oc2ccccc2)[C@@H](O)[C@@]1(C)SC` (stereo partly drawn) [drawing 242] displayed a Cytotoxicity in data set [1] of more than 100 µM. This compound yielded an EC50 in data set [2] of 38 µM.

For the origin of these results see patent US9061041B2, “2′-substituted nucleoside derivatives and methods of use thereof for the treatment of viral diseases” (Merck Sharp & Dohme Corp., priority 2011, dated 2015).
